Here are results for 11 compounds from ChEMBL document CHEMBL4152373 (Bioorg Med Chem, 2018).

A word on the fraction unbound: it is free concentration divided by total concentration. High values mean weak binding, low ones extensive binding. By half-life is commonly meant how long it takes for the measured level to halve. A low value points to fast loss. Broadly, the bioavailability is dose-corrected exposure relative to a reference, in per cent. A higher bioavailability goes with much systemic uptake. Broadly, the logD is lipophilicity at a set pH, counting ionised and neutral species. A high value points to higher lipophilicity. As usually defined, the inhibition in vivo is the change of the read-out against control, counted positive when it falls.

Series [1] deals with Rattus norvegicus. Description: Dose normalized unbound AUC in Sprague-Dawley rat at 3 mg/kg, po administered via gavage as single dose by LC-MS/MS analysis. The class given is ADME, organism-based. The note with it: in vivo.
A short description of series [2]: Fraction unbound in rat plasma at 5 uM after 4 hrs by equilibrium dialysis method.
Series [3] is described as follows: Half life in Sprague-Dawley rat at 1 mg/kg, iv administered as single dose by LC-MS/MS analysis. The series is classed as ADME, organism-based. The note with it: in vivo.
Series [4] in a line: Oral bioavailability in Sprague-Dawley rat at 3 mg/kg administered via gavage as single dose by LC-MS/MS analysis. The series is classed as ADME, organism-based. The note with it: in vivo.
Series [5] can be described thus: Octanol-PBS buffer partition coefficient, log D of the compound at pH 7.4 by HPLC method.
Series [6] deals with Mus musculus. Put plainly: Antidiabetic activity in C57Bl/6J mouse assessed as inhibition of blood glucose AUC (0 to 120 mins) at 50 mg/kg, po treated prior to glucose challenge by OGTT relative to control. The series is classed as functional.
Series [7] relates to Mus musculus. Description: Dose normalized unbound AUC in C57Bl/6J mouse at 50 mg/kg, po administered via gavage as single dose by LC-MS/MS analysis. The class given is ADME, organism-based. The note with it: in vivo.
A short description of series [8]: Octanol-PBS buffer partition coefficient, log D of the compound at pH 7.4 by shake flask method.
The subject of series [9] is Rattus norvegicus. Put plainly: Unbound clearance in Sprague-Dawley rat at 1 mg/kg, iv administered as single dose by LC-MS/MS analysis. The settings on record: in vivo. The class given is ADME, organism-based.
A short description of series [10]: Fraction unbound in mouse plasma at 5 uM after 4 hrs by equilibrium dialysis method. (In general: In equilibrium dialysis free small molecules cross a membrane that holds back macromolecules.)
Series [11] relates to Mus musculus. Put plainly: Antidiabetic activity in C57Bl/6J mouse assessed as inhibition of blood glucose AUC (0 to 120 mins) at […], po treated prior to glucose challenge by OGTT relative to control. The series is classed as functional. The note with it: AT84, po.
The subject of series [12] is Mus musculus. Description: Dose normalized unbound AUC in C57Bl/6J mouse at 3 mg/kg, po administered via gavage as single dose by LC-MS/MS analysis. The class given is ADME, organism-based. The note with it: in vivo.

Molecules are shown by their SMILES.

As for `CN(C(=O)[C@@H](CC(=O)O)Cc1ccccc1)c1nc(-c2ccccc2Cl)cs1`, the results for the fAUC/dose in series [1] and in series [7] were 2.4 µM·min and 2 µM·min, respectively. The fraction unbound at 4 h, 5 µM in series [2] was 0.0008; in [10] it was 0.0015. In addition, the half-life in [3] amounted to 8.03 h. Further, the bioavailability in [4] was found to be 77%. Further, the logD in series [5] was 2.13 to 2.3; in [8], 2.31. Besides, the inhibition in vivo at 50 mg/kg in series [6] is -8%. This compound also came in with a CL free in series [9] of 738 mL/min/kg.

`O=C(O)C[C@@H](Cc1ccccc1)C(=O)N(c1nc(-c2cc(Cl)ccc2Cl)cs1)C1CC1`: the fAUC/dose in series [1] came out at 0.26 µM·min; in series [7], 0.32 µM·min. Also, the fraction unbound at 4 h, 5 µM in series [2] and in series [10] was 0.0001 in each case. Further, the half-life in series [3] is 9.83 h. In [4], the bioavailability worked out at 47%. The logD in series [5] came out at 3. Moreover, the inhibition in vivo at 50 mg/kg in series [6] was determined as 5%. The compound also gave a CL free in series [9] of 2800 mL/min/kg.

In the case of `COc1ccc(-c2ccc(Cl)cc2-c2csc(N(C(=O)[C@@H](CC(=O)O)Cc3ccco3)C3CC3)n2)cn1`, the fAUC/dose in [1] was 0.26 µM·min; in series [7] it was 1.2 µM·min. Besides, the fraction unbound at 4 h, 5 µM in series [2] stood at 0.0026; in series [10], 0.0041. This compound also gave a half-life in series [3] of 9.65 h. Besides, the bioavailability in series [4] turned out to be 38%. For the same compound, in series [5], the log distribution coefficient (logD) came out at 2.5. In [6], the inhibition in vivo at 50 mg/kg was found to be 32%. The same compound came in with a CL free in series [9] of 2738 mL/min/kg.

Take `CC(C)C[C@H](CC(=O)O)C(=O)N(c1nc(-c2ccccc2-c2ccc(-n3cccn3)nc2)cs1)C1CC1`: the values for the fAUC/dose in series [1] and in series [7] were 0.55 µM·min and 3.3 µM·min, respectively. The fraction unbound at 4 h, 5 µM in series [2] was 0.0057; in [10], 0.0075. For the same compound, the half-life in [3] was 4.67 h. The compound also yielded a bioavailability in series [4] of 29%. In [5], this compound came in with a logD of 2.4. In addition, the inhibition in vivo at 50 mg/kg in [6] is 26%. In series [9], this compound yielded a CL free of 1091 mL/min/kg.

In series [5], `CN(C(=O)[C@H](CC(=O)O)Cc1ccccc1)c1nc(-c2ccccc2Cl)cs1` had a logD of 2.3.

As to `CC(C)[C@H](C(=O)Nc1nccs1)c1ccc(Cl)cc1`, the fAUC/dose stood at 0.08 µM·min in [1] and 0.045 µM·min in series [12]. Further, the fraction unbound at 4 h, 5 µM in series [2] came to 0.0062; in series [10], 0.0052. The compound also gave a half-life in series [3] of 3.67 h. The compound further had a bioavailability in series [4] of 15%. In series [11], the inhibition in vivo at […] turned out to be 7%. The logD is 3.9 to 4.08 in series [5] and 3.94 in series [8]. In addition, the CL free in series [9] amounted to 6666 mL/min/kg.

`COc1ccc(-c2ccccc2-c2csc(N(C(=O)[C@@H](CC(=O)O)CC(C)C)C3CC3)n2)cn1`: the fAUC/dose came to 2.1 µM·min in series [1] and 4.7 µM·min in [7]. Besides, the results for the fraction unbound at 4 h, 5 µM in series [2] and in [10] were 0.0066 and 0.0107, respectively. Besides, the half-life in series [3] came out at 7.18 h. The same compound had a bioavailability in series [4] of 35%. This compound showed a logD in series [5] of 2.2. Further, the inhibition in vivo at 50 mg/kg in series [6] was 19%. The compound also yielded a CL free in series [9] of 342 mL/min/kg.

Take `O=C(O)C[C@@H](Cc1ccccc1)C(=O)N(c1nc(-c2ccccc2Cl)cs1)C1CC1`: the fAUC/dose in [1] came to 0.7 µM·min; in series [7], 4.7 µM·min. The fraction unbound at 4 h, 5 µM in series [2] came to 0.0016; in [10], 0.0025. The compound also yielded a half-life in series [3] of 5.32 h. The bioavailability in [4] turned out to be 52%. In [5], this compound returned a logD of 2.3. Also, the inhibition in vivo at 50 mg/kg in series [6] was 1%. In [9], this compound came in with a CL free of 1044 mL/min/kg.

Take `CN(C(=O)[C@@H](CC(=O)O)CC1CCOCC1)c1nc(-c2ccccc2Cl)cs1`: the logD was 1.27 to 1.3 in series [5] and 1.27 in series [8].

Turning to `CN(C(=O)[C@@H](CC(=O)O)CC1CCCC1)c1nc(-c2ccccc2Cl)cs1`, the logD in [5] is 2.74 to 2.9; in series [8], 2.87.

For `O=C(O)C[C@@H](CC1CCCC1)C(=O)N(c1nc(-c2ccccc2-c2ccc(-n3cccn3)nc2)cs1)C1CC1`, the figures for the fAUC/dose in [1] and in series [7] were 0.07 µM·min and 0.53 µM·min, respectively. The figures for the fraction unbound at 4 h, 5 µM in [2] and in series [10] were 0.0013 and 0.0014, respectively. In series [3], this compound came in with a half-life of 2.58 h. In addition, the bioavailability in series [4] was 25%. Besides, the logD in [5] came to 3.1. Further, the inhibition in vivo at 50 mg/kg in [6] stood at 40%. Moreover, the CL free in series [9] was found to be 6692 mL/min/kg.
